{
  "source": "ChEMBL document CHEMBL1153372",
  "about": "“A selective matrix metalloprotease 12 inhibitor for potential treatment of chronic obstructive pulmonary disease (COPD): discovery of (S)-2-(8-(methoxycarbonylamino)dibenzo[b,d]furan-3-sulfonamido)-3-methylbutanoic acid (MMP408)” (J Med Chem, 2009)",
  "key": {"[1]": {"test": "Cmax in C57BL/6 mouse at 30 mg/kg, po", "assay_type": "ADME, organism-based", "set-up": "dose 30 mg/kg, route oral", "details": "in vivo; call rule not given here"}, "[2]": {"test": "AUC in C57BL/6 mouse at 30 mg/kg, po", "assay_type": "ADME, organism-based", "set-up": "dose 30 mg/kg, route oral", "details": "plasma"}, "[3]": {"test": "Oral bioavailability in C57BL/6 mouse at 30 mg/kg", "assay_type": "ADME, organism-based", "details": "in vivo"}, "Stromelysin-1": {"biological_target": "Stromelysin-1 (Homo sapiens, UniProt P08254)", "sequence (P08254 whole entry)": "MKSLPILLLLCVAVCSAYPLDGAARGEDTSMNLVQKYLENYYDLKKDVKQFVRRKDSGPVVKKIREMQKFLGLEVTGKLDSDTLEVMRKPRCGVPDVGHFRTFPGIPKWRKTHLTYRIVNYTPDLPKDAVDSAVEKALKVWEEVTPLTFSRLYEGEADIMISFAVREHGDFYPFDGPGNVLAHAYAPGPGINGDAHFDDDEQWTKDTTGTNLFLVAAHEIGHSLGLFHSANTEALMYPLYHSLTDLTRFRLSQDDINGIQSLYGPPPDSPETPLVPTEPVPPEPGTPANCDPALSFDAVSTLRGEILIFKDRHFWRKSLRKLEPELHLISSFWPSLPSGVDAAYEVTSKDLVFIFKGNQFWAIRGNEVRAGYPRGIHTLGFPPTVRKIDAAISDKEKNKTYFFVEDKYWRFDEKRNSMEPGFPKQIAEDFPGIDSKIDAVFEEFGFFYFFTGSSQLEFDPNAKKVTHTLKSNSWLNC", "test": "Inhibition of human MMP3"}, "Matrilysin": {"biological_target": "T1, Matrilysin (Homo sapiens, UniProt P09237)", "T1 sequence (P09237 whole entry)": "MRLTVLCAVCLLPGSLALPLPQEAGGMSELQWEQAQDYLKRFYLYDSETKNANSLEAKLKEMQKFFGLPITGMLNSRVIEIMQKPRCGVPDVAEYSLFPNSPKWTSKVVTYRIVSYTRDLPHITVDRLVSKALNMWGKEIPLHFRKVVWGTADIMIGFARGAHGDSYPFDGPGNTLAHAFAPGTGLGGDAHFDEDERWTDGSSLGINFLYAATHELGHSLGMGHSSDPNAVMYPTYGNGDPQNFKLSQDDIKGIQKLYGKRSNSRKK", "test": "Inhibition of human MMP7"}, "[4]": {"biological_target": "Matrix metalloproteinase-9 (Homo sapiens, UniProt P14780)", "sequence (P14780 whole entry)": "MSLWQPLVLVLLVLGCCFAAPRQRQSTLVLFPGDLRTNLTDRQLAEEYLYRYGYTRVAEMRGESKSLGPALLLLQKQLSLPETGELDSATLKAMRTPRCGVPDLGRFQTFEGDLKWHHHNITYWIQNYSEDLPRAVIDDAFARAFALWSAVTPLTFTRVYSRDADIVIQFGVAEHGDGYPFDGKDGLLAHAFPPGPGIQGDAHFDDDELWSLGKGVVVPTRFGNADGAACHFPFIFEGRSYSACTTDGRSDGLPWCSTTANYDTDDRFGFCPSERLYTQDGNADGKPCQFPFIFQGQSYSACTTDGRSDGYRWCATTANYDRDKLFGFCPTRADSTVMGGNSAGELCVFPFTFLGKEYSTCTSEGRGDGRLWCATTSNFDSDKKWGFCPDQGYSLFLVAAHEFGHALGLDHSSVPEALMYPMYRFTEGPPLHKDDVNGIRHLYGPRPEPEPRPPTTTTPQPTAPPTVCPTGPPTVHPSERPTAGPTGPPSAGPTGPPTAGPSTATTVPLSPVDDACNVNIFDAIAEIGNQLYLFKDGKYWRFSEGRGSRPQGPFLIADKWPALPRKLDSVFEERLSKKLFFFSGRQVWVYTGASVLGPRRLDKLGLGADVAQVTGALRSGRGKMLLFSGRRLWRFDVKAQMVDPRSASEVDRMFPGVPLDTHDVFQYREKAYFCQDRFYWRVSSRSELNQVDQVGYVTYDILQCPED", "test": "Inhibition of human MMP9"}, "[5]": {"biological_target": "T2, A disintegrin and metalloproteinase with thrombospondin motifs 4 (Homo sapiens, UniProt O75173)", "T2 sequence (O75173 whole entry)": "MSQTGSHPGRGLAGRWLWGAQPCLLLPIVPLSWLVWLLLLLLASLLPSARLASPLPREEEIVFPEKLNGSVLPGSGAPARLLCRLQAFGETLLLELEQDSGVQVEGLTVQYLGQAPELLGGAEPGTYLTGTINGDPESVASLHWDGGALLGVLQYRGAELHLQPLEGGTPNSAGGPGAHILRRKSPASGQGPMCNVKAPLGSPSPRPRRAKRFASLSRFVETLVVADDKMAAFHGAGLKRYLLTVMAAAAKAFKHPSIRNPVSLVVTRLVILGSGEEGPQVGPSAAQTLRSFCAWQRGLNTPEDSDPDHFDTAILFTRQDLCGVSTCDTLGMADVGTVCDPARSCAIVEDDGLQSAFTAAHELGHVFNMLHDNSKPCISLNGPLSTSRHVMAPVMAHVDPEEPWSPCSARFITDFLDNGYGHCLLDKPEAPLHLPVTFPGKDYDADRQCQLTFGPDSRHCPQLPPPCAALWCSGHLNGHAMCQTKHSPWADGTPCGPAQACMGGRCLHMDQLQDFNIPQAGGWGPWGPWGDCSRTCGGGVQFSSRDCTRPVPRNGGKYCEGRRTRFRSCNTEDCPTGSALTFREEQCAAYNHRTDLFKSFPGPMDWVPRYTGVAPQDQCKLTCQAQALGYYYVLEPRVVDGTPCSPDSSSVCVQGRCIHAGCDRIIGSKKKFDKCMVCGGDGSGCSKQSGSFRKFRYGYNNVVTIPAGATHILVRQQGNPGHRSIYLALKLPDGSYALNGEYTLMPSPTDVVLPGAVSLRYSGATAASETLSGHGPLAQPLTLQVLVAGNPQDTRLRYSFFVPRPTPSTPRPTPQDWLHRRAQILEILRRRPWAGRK", "test": "Inhibition of human Aggrecanase-1"}, "[6]": {"biological_target": "T3, A disintegrin and metalloproteinase with thrombospondin motifs 5 (Homo sapiens, UniProt Q9UNA0)", "T3 sequence (Q9UNA0 whole entry)": "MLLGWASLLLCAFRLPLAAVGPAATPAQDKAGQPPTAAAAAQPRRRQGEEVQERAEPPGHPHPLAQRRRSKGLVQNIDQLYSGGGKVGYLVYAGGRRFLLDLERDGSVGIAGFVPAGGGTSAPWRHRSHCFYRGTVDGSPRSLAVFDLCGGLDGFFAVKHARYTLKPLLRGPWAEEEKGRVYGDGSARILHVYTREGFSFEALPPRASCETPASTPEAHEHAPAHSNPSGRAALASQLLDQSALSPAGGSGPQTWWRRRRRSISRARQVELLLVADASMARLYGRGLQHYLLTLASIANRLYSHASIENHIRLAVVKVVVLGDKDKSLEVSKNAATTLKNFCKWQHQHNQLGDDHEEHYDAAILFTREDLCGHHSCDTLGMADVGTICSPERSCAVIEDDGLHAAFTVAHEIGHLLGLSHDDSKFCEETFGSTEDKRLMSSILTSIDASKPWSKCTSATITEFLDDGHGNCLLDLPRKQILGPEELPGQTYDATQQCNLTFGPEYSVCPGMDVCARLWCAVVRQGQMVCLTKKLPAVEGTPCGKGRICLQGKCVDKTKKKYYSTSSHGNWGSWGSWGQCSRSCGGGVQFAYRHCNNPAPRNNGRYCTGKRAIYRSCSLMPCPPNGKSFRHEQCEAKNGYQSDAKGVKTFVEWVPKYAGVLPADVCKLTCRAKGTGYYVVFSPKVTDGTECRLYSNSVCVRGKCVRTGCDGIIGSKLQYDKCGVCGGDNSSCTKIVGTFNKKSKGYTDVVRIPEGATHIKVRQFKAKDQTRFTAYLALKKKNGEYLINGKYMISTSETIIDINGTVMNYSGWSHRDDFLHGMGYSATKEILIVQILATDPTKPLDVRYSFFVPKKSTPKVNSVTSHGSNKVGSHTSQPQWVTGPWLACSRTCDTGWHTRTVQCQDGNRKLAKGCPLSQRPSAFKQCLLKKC", "test": "Inhibition of human Aggrecanase-2"}, "[7]": {"biological_target": "Matrix metalloproteinase-14 (Homo sapiens, UniProt P50281)", "test": "Inhibition of human MMP14"}, "[8]": {"test": "Metabolic stability in mouse liver microsomes", "assay_type": "ADME, Microsome"}, "[9]": {"test": "Metabolic stability in rat liver microsomes", "assay_type": "ADME, Microsome"}, "[10]": {"test": "Metabolic stability in dog liver microsomes", "assay_type": "ADME, Canis lupus familiaris, Microsome"}, "[11]": {"test": "Metabolic stability in monkey liver microsomes", "assay_type": "ADME, Macaca mulatta, Microsome", "details": "rhesus monkey"}, "[12]": {"biological_target": "Voltage-gated inwardly rectifying potassium channel KCNH2 (Homo sapiens, UniProt Q12809)", "sequence (Q12809 whole entry)": "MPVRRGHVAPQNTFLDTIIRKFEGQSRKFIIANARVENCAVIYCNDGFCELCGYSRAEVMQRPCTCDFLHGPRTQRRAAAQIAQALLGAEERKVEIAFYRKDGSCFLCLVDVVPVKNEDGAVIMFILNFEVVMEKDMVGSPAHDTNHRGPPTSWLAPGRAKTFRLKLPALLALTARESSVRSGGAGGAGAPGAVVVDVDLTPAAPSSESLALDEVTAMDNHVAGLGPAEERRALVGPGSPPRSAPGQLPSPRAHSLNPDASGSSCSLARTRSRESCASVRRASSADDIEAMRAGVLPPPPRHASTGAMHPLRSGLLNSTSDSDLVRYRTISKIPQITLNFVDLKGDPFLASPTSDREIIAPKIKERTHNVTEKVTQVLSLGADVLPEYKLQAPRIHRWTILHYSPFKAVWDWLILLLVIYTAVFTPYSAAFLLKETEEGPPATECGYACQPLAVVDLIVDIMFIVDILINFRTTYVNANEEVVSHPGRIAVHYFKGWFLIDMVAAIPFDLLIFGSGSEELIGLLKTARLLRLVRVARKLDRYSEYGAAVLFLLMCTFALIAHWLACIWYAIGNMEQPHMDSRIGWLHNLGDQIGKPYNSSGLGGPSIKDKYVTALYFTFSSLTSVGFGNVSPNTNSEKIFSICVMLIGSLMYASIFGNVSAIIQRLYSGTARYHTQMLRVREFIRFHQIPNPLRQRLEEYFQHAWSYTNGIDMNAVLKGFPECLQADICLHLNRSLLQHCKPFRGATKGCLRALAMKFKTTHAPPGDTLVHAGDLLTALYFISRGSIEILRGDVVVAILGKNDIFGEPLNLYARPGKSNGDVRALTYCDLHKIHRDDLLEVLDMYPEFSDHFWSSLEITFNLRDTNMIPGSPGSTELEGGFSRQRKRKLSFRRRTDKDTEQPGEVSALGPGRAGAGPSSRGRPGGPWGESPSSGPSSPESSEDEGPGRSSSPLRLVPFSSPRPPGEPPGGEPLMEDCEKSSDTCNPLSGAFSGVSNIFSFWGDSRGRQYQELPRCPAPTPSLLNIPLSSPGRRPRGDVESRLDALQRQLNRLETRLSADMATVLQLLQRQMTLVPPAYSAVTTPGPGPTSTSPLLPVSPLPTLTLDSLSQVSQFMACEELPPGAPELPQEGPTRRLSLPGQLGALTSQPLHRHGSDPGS", "test": "Inhibition of human ERG channel"}, "[13]": {"test": "Metabolic stability in human liver microsomes", "assay_type": "ADME, Microsome"}, "Mus musculus [14]": {"test_system": "Mus musculus", "test": "Inhibition of human recombinant MMP-12-induced lung inflammation in C57BL/6 mouse chronic obstructive pulmonary disease model assessed as inhibition of bronchoalveolar lavage fluid macrophage level at 30 mg/kg, po qd", "assay_type": "functional", "details": "C57BL/6, Lung"}, "Mus musculus [15]": {"test_system": "Mus musculus", "test": "Inhibition of human recombinant MMP-12-induced lung inflammation in po dosed C57BL/6 mouse chronic obstructive pulmonary disease model assessed as inhibition of lung inflammation dosed twice daily", "assay_type": "functional", "details": "C57BL/6, po, read-out: MED"}, "Mus musculus [16]": {"test_system": "Mus musculus", "test": "Inhibition of human recombinant MMP-12-induced lung inflammation in C57BL/6 mouse chronic obstructive pulmonary disease model assessed as inhibition of bronchoalveolar lavage fluid inflammation at 30 mg/kg, po qd", "assay_type": "functional", "details": "C57BL/6, Lung"}, "Interstitial collagenase": {"biological_target": "T4, Interstitial collagenase (Homo sapiens, UniProt P03956)", "T4 sequence (P03956 whole entry)": "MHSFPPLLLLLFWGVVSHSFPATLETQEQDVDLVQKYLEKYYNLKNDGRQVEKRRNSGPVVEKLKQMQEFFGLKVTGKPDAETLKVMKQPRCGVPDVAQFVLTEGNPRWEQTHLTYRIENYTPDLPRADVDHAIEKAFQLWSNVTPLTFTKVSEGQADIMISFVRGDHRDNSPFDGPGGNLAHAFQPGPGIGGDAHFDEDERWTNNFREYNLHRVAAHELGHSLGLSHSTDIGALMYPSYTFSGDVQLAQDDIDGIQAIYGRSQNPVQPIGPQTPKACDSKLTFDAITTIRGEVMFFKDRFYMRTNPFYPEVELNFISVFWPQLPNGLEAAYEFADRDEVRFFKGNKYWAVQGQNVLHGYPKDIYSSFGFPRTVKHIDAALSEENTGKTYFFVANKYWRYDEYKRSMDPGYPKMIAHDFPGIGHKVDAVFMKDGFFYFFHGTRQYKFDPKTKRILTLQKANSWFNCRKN", "test": "Inhibition of human MMP1"}, "[17]": {"test": "Inhibition of sheep MMP12", "set-up": "species or system Ovis aries"}, "[18]": {"biological_target": "Macrophage metalloelastase (Mus musculus, UniProt P34960)", "sequence (P34960 whole entry)": "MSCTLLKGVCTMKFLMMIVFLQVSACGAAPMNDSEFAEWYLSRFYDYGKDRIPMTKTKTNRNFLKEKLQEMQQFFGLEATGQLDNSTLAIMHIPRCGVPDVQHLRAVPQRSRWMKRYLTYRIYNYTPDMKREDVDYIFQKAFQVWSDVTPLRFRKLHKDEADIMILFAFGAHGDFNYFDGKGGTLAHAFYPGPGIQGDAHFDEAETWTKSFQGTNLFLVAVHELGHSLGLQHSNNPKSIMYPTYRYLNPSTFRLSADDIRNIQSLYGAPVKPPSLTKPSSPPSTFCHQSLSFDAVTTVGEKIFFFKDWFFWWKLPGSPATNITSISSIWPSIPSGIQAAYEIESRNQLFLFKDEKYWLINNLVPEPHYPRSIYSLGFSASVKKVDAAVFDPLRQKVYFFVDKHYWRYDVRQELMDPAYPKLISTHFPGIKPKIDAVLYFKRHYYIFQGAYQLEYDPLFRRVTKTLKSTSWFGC", "test": "Inhibition of mouse recombinant MMP12"}, "Collagenase 3": {"biological_target": "Collagenase 3 (Homo sapiens, UniProt P45452)", "test": "Inhibition of human recombinant MMP13 expressed in Escherichia coli"}, "[19]": {"test": "Volume of distribution at steady state in C57BL/6 mouse at 2 mg/kg, iv", "assay_type": "ADME, organism-based", "set-up": "dose 2 mg/kg, route intravenous", "details": "in vivo, read-out: Vdss"}, "[20]": {"test": "Clearance in C57BL/6 mouse at 2 mg/kg, iv", "assay_type": "ADME, organism-based", "set-up": "dose 2 mg/kg, route intravenous", "details": "in vivo"}, "[21]": {"test": "Half life in C57BL/6 mouse at 30 mg/kg, po", "assay_type": "ADME, organism-based", "set-up": "dose 30 mg/kg, route oral", "details": "in vivo"}, "[22]": {"biological_target": "Macrophage metalloelastase (Rattus norvegicus, UniProt Q63341)", "sequence (Q63341 whole entry)": "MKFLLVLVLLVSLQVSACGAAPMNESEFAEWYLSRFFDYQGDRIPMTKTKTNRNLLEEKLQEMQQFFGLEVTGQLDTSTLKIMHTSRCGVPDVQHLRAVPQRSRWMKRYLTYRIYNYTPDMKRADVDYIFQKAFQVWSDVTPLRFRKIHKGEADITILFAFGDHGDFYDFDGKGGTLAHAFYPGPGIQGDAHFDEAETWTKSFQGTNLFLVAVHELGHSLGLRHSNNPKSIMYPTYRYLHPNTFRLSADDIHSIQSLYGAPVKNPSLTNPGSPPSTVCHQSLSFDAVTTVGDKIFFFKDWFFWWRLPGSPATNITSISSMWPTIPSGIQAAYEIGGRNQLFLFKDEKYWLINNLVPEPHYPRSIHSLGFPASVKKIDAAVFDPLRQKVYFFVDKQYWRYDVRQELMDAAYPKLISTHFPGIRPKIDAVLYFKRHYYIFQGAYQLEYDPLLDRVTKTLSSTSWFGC"}},
  "data": [
    {"smiles": "COC(=O)Nc1ccc2oc3cc(S(=O)(=O)N[C@H](C(=O)O)C(C)C)ccc3c2c1", "values": [
      {"measurement": "Cmax", "setting": "[1]", "result": 3080, "unit": "ng/mL"},
      {"measurement": "AUC", "setting": "[2]", "result": 7480, "unit": "ng·h/mL"},
      {"measurement": "bioavailability", "setting": "[3]", "result": 27, "unit": "%"},
      {"measurement": "IC50", "setting": "Stromelysin-1", "result": 351, "unit": "nM"},
      {"measurement": "IC50", "setting": "Matrilysin", "result": "> 22000", "unit": "nM"},
      {"measurement": "IC50", "setting": "[4]", "result": 1300, "unit": "nM"},
      {"measurement": "IC50", "setting": "[5]", "result": "> 5000", "unit": "nM"},
      {"measurement": "IC50", "setting": "[6]", "result": "> 10000", "unit": "nM"},
      {"measurement": "IC50", "setting": "[7]", "result": 1100, "unit": "nM"},
      {"measurement": "half-life", "setting": "[8]", "result": "> 1", "unit": "h"},
      {"measurement": "half-life", "setting": "[9]", "result": "> 1", "unit": "h"},
      {"measurement": "half-life", "setting": "[10]", "result": "> 1", "unit": "h"},
      {"measurement": "half-life", "setting": "[11]", "result": "> 1", "unit": "h"},
      {"measurement": "Activity", "setting": "[12]", "result": "Not Active"},
      {"measurement": "half-life", "setting": "[13]", "result": "> 1", "unit": "h"},
      {"measurement": "inhibition in vivo at 30 mg/kg", "setting": "Mus musculus [14]", "result": "> 70", "unit": "%"},
      {"measurement": "minimal effective dose", "setting": "Mus musculus [15]", "result": 5, "unit": "mg/kg"},
      {"measurement": "inhibition in vivo at 30 mg/kg", "setting": "Mus musculus [16]", "result": "> 50", "unit": "%"},
      {"measurement": "IC50", "setting": "Interstitial collagenase", "result": "> 6000", "unit": "nM"},
      {"measurement": "IC50", "setting": "[17]", "result": 22.3, "unit": "nM"},
      {"measurement": "IC50", "setting": "[18]", "result": 160, "unit": "nM"},
      {"measurement": "IC50", "setting": "Collagenase 3", "result": 120, "unit": "nM"},
      {"measurement": "Vd", "setting": "[19]", "result": 1.9, "unit": "L/kg"},
      {"measurement": "clearance", "setting": "[20]", "result": 17.2, "unit": "mL/min/kg"},
      {"measurement": "half-life", "setting": "[21]", "result": 3, "unit": "h"},
      {"measurement": "IC50", "setting": "[22]", "result": 320, "unit": "nM"}
    ]}
  ]
}
